The experiment has as its system female Sprague-Dawley rats. The experiment is described as follows: Cystometry test system on conscious fresh rats. It is filed as in vivo, rat. Particulars: for BC Bladder Capacity, change compared to the baseline value / ICI Inter-Contraction Interval, change compared to the baseline value / TP Threshold Pressure, change compared to the baseline value: effect maximum; for effect on the bladder regulation (in words): cystometry, iv. The method, then: Cystometry investigations were carried out on fresh female Sprague-Dawley rats according to the method of Ishizuka et al. ((1997), Naunyn-Schmiedeberg's Arch. Pharmacol. 355: 787-793). Three days after implantation of bladder and venous catheters the animals were investigated in the conscious state while freely moving. The bladder catheter was connected to a pressure gauge and an injection pump. The animals were placed in metabolic cages that enabled the volume of urine to be measured. Physiological saline solution was infused (10 ml/hour) into the emptied bladder and the bladder pressure and volume of urine were continuously recorded. After a stabilisation phase a 20-minute phase was recorded that was characterised by normal, reproducible micturition cycles. The following parameters among others were measured: • threshold pressure TP, bladder pressure immediately before micturition, • bladder capacity BC, residual volume after prior micturition plus volume of infused solution during the filling phase, • intercontraction interval ICI, i.e. the time interval between consecutive micturition.
An increase in the threshold pressure (TP) indicates an important therapeutic effect in one of the medical conditions covered by the invention. Also, the intercontraction interval (ICI) is an important parameter for measuring the physiological effectiveness of a substance in the treatment of urinary incontinence, as is the bladder capacity (BC). In this connection, on account of the widely differing causes of the symptoms of these disease patterns it is not necessary to influence positively all three parameters in order for a medicament to be effective.
After recording three reproducible micturition cycles to provide a baseline value, the test substances (1 (1.0 mg/kg), 2 (0.1; 0.3 and 0.5 mg/kg) and 21 (0.5 mg/kg), in a vehicle comprising 0.9% NaCl were applied intravenously and the effect on the cystometric parameters was recorded at 90 to 120 minutes. In the effect maximum the mean value of 3 micturition cycles was determined and recorded as a percentage change compared to the baseline value (Table 1).

Marks after values point to notes of the source that are not given here.

As to `CC[C@@](O)(c1cccc(OC)c1)[C@@H](C)CN(C)C.Cl` [Compound 21, (−)-(2S,3S)-1-dimethylamino-3-(3-methoxyphenyl)-2-methylpentan-3-ol; hydrochloride], the “effect on the bladder regulation (in words)” value is reported as “does not exhibit such a marked effect”. Under “0.5 mg/kg iv”, the “BC Bladder Capacity, change compared to the baseline value” (“BC Bladder Capacity, change” below) is “+3%”; the “ICI Inter-Contraction Interval, change compared to the baseline value” (“ICI Inter-Contraction Interval, change” for short) is “+10%”; the “TP Threshold Pressure, change compared to the baseline value” (“TP Threshold Pressure, change” for short) was −1.1%.
In the case of `CC[C@](O)(c1cccc(OC)c1)[C@H](C)CN(C)C.Cl` [Compound 2, (+)-(2R,3R)-1-dimethylamino-3-(3-methoxyphenyl)-2-methylpentan-3-ol; hydrochloride], the “effect on the bladder regulation (in words)” value is “very effective”. Where the note is “0.1 mg/kg iv”, the “BC Bladder Capacity, change” value was “+7.8%”; the “ICI Inter-Contraction Interval, change” value was “+15.6%”; the “TP Threshold Pressure, change” value is reported as “+28.5%**”. Where the note is “0.3 mg/kg iv”, the “BC Bladder Capacity, change” value was “+33%*”; the “ICI Inter-Contraction Interval, change” value is reported as “+28%*”; the “TP Threshold Pressure, change” value is given as “+122%**”. Under “0.5 mg/kg iv”, the “BC Bladder Capacity, change” value is given as “+20.6%*”; the “ICI Inter-Contraction Interval, change” value is on record as “+28.6%**”; the “TP Threshold Pressure, change” value is listed as “+77.5%**”.
Turning to `CC[C@](O)(c1cccc(OC)c1)[C@H](C)CN(C)C.Cl` (racemic) [Compound 1, (2RS,3RS)-1-dimethylamino-3-(3-methoxyphenyl)-2-methylpentan-3-ol; hydrochloride], where the note is “1.0 mg/kg iv”, the “BC Bladder Capacity, change” value is given as “+31%***”; the “ICI Inter-Contraction Interval, change” value is listed as “+42%”; the “TP Threshold Pressure, change” value is listed as “+94%**”.
